Converted amounts (≈) assume the structure as drawn. Where a name gives a salt, the structure may show the parent alone.

The subject of one series is Saccharomyces cerevisiae. The experiment in a line: Microdilution assay (MIC). The format is cell-based. The note with it: hydrochlorides used, arithmetic average of two determinations, read-out: Minimal inhibitory concentration (MIC). On the procedure: (§1) For comparison, the N-undecylperhydroisoquinoline (C) was also tested here. For solubility reasons, the hydrochlorides were used in this assay (Table 2).
(In general: Dilution methods test growth across graded concentrations, often in twofold steps.)

In another series the test system is Yarrowia lipolytica. The experiment in a line: Microdilution assay (MIC). The format is cell-based. Particulars: hydrochlorides used, arithmetic average of two determinations, read-out: Minimal inhibitory concentration (MIC). The method, then:
as §1

Another series deals with Candida glabrata. The series is described as follows: Microdilution assay (MIC). The class given is cell-based. The note with it: Nakaseomyces glabratus, hydrochlorides used, arithmetic average of two determinations, read-out: Minimal inhibitory concentration (MIC). The method, then:
as §1

Series [1] deals with human leukemia cell line (HL 60). The experiment in a line: MTT test (cytotoxicity). Particulars: HL 60 cell line, arithmetic average of three determinations. The format is cell-based. The method, then:
The cytotoxicity of the compounds 3a–d, 5a–d, and 8b was determined in an MTT test against a human leukemia cell line (HL 60).
(In general: Tetrazolium dyes change colour on reduction, which living cells bring about.)

Series [2] concerns the target T1, Δ8,7-isomerase (Saccharomyces cerevisiae, UniProt P32352).
T1 construct: whole-cell assay for identification of the target enzyme in ergosterol biosynthesis; endogenous in cells; host or cells: Saccharomyces cerevisiae and Candida glabrata whole cells
The series is described as follows: Whole-cell assay for identification of the target enzyme in ergosterol biosynthesis (sterol pattern by GLC-MS). The format is cell-based. Particulars: Candida glabrata and Saccharomyces cerevisiae incubated with test compound, lichesterol accumulation indicates Δ8,7-isomerase inhibition. On the procedure:
The compounds 5c and 7 were also subjected to our whole-cell assay for identification of the target enzyme in ergosterol biosynthesis. In this assay, the strains Candida glabrata and Saccharomyces cerevisiae were incubated with the test compounds, and after cell lysis, the changes in the sterol pattern were analyzed by GLC-MS. The accumulation of the Δ8(9)-sterol lichesterol (ergosta-5,8,22-trien-3β-ol) clearly indicates an inhibition of the enzyme Δ8,7-isomerase.

In a further series the test system is Candida spp. On the set-up: method as in earlier work. Particulars: printed in the Candida glabrata column; cited from earlier work.
Series [3] has as its system Candida glabrata (DSMZ-Nr.11226). The series is described as follows: Agar diffusion assay. The class given is cell-based. The note with it: Nakaseomyces glabratus, C. glabrata, GI = growth inhibition, read-out: diameter of zones of total inhibition. The method, then:
(§2) The resulting compounds and known compounds, 1-undecylpiperidine (7) and 1-decylpiperazine (8a), as well as 1-methyl-4-undecylpiperazine (8b) (prepared in the same way), were tested in an agar diffusion assay against Gram-positive (Staphylococcus equorum (DSMZ-Nr. 20675), Streptococcus entericus (DSZM-Nr. 14446)) and Gram-negative bacteria (Escherichia coli (DSMZ-Nr. 426), Pseudomonas marginalis (DSMZ-Nr. 7527)), as well as the fungi Yarrowia lipolytica (DSMZ-Nr. 1345), Candida glabrata (DSMZ-Nr.11226), Aspergillus niger (DSMZ-Nr. 1988), and Hyphopichia burtonii (DSMZ-Nr. 70663) (Table 1).
Background: In agar diffusion tests the substance spreads into inoculated agar from a disc or well.

Series [4] has as its system Staphylococcus equorum (DSMZ-Nr. 20675). The series is described as follows: Agar diffusion assay. The class given is cell-based. The note with it: read-out: diameter of zones of total inhibition. On the procedure: as §2
Series [5] relates to Escherichia coli (DSMZ-Nr. 426). The series is described as follows: Agar diffusion assay. The class given is cell-based. The note with it: E. coli, GI = growth inhibition, read-out: diameter of zones of total inhibition. The method, then:
as §2

In series [6] the test system is Pseudomonas marginalis (DSMZ-Nr. 7527). The series is described as follows: Agar diffusion assay. Particulars: P. marginalis, GI = growth inhibition, read-out: diameter of zones of total inhibition. The class given is cell-based. The method, then: as §2
In series [7] the test system is Aspergillus niger (DSMZ-Nr. 1988). The series is described as follows: Agar diffusion assay. The format is cell-based. Particulars: A. niger, GI = growth inhibition, read-out: diameter of zones of total inhibition. On the procedure: as §2
The test system of series [8] is Streptococcus entericus (DSZM-Nr. 14446). The series is described as follows: Agar diffusion assay. The class given is cell-based. The note with it: S. entericus, GI = growth inhibition, read-out: diameter of zones of total inhibition. The method, then:
as §2

Series [9] relates to Yarrowia lipolytica (DSMZ-Nr. 1345). The series is described as follows: Agar diffusion assay. The class given is cell-based. Particulars: Y. lipolytica, GI = growth inhibition, read-out: diameter of zones of total inhibition. On the procedure:
as §2

Series [10] relates to Hyphopichia burtonii (DSMZ-Nr. 70663). The series is described as follows: Agar diffusion assay. The format is cell-based. The note with it: H. burtonii, GI = growth inhibition, read-out: diameter of zones of total inhibition. The method, then: as §2
Series [11] relates to Δ8,7-isomerase. Also on record: method as in PMID 24464607. The note with it: cited from earlier work.

T1 sequence (P32352 whole entry, stated change not applied): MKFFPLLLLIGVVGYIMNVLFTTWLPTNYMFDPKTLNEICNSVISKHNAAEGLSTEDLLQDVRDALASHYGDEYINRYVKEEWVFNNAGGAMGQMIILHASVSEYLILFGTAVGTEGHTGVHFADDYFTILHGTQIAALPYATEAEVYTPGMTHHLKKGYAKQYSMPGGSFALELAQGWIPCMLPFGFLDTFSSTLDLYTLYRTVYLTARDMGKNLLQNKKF

The IC50 is the point on the concentration scale where inhibition reaches its midpoint. Low readings indicate greater potency, high ones weaker potency. With `CCCCCCCCCCCCN1CCC[C@@H]2CCCC[C@H]21` (racemic) [Compound 5d, (±)-trans-1-Dodecyldecahydroquinoline hydrochloride], the MIC amounted to 2.5 µg/mL in the series on Saccharomyces cerevisiae, 2.5 µg/mL in the series with Yarrowia lipolytica and 5 µg/mL in the series with Candida glabrata. Besides, in series [1], the IC50 is 6 µM.

Consider `CCCCCCCCCCN1CCC[C@@H]2CCCC[C@H]21` (racemic) [Compound 5b, (±)-trans-1-Decyldecahydroquinoline hydrochloride], for which the results for the MIC in the series on Saccharomyces cerevisiae, in the series on Yarrowia lipolytica and in the series with Candida glabrata were 1 µg/mL, 2.5 µg/mL and 37.5 µg/mL, respectively. The compound further gave an IC50 in series [1] of 7 µM.

Turning to `CCCCCCCCCCCN1CCC[C@@H]2CCCC[C@H]21` (racemic) [Compound 5c, (±)-trans-1-Undecyldecahydroquinoline hydrochloride], the figures for the “change in sterol pattern / target enzyme in ergosterol biosynthesis” value on Δ8,7-isomerase [2] and on Δ8,7-isomerase [2] (listed as N-undecylperhydroquinoline) were “accumulation of lichesterol” and “inhibitor of Δ8,7-isomerase”, respectively. For the same compound, the MIC in the series on Saccharomyces cerevisiae stood at 0.25 µg/mL; with Yarrowia lipolytica, 5 µg/mL; with Candida glabrata it was 25 µg/mL. The IC50 in series [1] was found to be 7 µM.

In the case of nystatine B, the “MIC90 Candida spp.” value in the series on Candida spp. was 4 (MIC90 Candida spp.) [17] µg/mL.

For the compound `CCCCCCCCCCN1CCNCC1` [Compound 8a, 1-decylpiperazine, reference compound], the zone of inhibition at 50 µg/disc in series [3] was found to be 8 mm; in [4], 13 mm; in series [5], 7 mm; in [6], 8 mm; in series [7], 20 mm; in [8] it was 17 mm. Also, the zone of inhibition at 50 µg/disc in [9] came out at 22 mm; in [10], 25 mm. Also, the MIC in the series with Saccharomyces cerevisiae is 5 µg/mL (≈ 22.1 µM); in the series with Yarrowia lipolytica, 10 µg/mL (≈ 44.2 µM); with Candida glabrata, 45 µg/mL (≈ 199 µM).

As to `Clc1ccccc1C(c1ccccc1)(c1ccccc1)n1ccnc1` [clotrimazole, reference compound], in the series on Candida spp., the “MIC90 Candida spp.” value is 1 (MIC90 Candida spp.) [17] µg/mL. In addition, the zone of inhibition at 50 µg/disc in series [3] is 13 mm; in series [7], 15 mm; in series [9], 15 mm; in series [10], 25 mm.

In the case of `CCCCCCCCCCCN1CCN(C)CC1` [Compound 8b, 1-methyl-4-undecylpiperazine, reference compound], the zone of inhibition at 50 µg/disc worked out at 11 mm in [3]; 18 mm in series [4]; 10 mm in [5]; 15 mm in [6]; 12 mm in series [7]; 15 mm in [8]. In addition, the figures for the zone of inhibition at 50 µg/disc in [9] and in series [10] were 25 mm and 14 mm, respectively. The figures for the MIC in the series on Saccharomyces cerevisiae, in the series on Yarrowia lipolytica and in the series on Candida glabrata were 50 µg/mL (≈ 196 µM), 10 µg/mL (≈ 39.3 µM) and 25 µg/mL (≈ 98.2 µM), respectively. Moreover, in series [1], the 50% inhibitory concentration (IC50) came to 46 µM.

On to `CCCCCCCCCCCN1CC[C@H]2CCCC[C@@H]2C1` (relative stereo) [C, N-n-undecyl-trans-decahydroisoquinoline, reference compound], for which, in the series with Δ8,7-isomerase [11], the “antifungal mechanism (enzyme inhibited)” value was “potent antifungal inhibiting the enzyme Δ8,7-isomerase”. The figures for the MIC with Saccharomyces cerevisiae, with Yarrowia lipolytica and with Candida glabrata were 0.1 µg/mL (≈ 0.341 µM), 1.75 µg/mL (≈ 5.96 µM) and 5 µg/mL (≈ 17 µM), respectively.

Regarding `CCCCCCCCCN1CCC[C@@H]2CCCC[C@H]21` (racemic) [Compound 5a, (±)-trans-1-Nonyldecahydroquinoline hydrochloride], the MIC in the series with Saccharomyces cerevisiae stood at 2.5 µg/mL; with Yarrowia lipolytica it was 7.5 µg/mL; with Candida glabrata, 50 µg/mL. This compound also yielded an IC50 in series [1] of 22 µM.

Turning to `OC(Cn1cncn1)(Cn1cncn1)c1ccc(F)cc1F` [fluconazole], the “MIC90 Candida spp.” value with Candida spp. is 32 (MIC90 Candida spp.) [17] µg/mL.

With `CCCCCCCCCCCN1CCCCC1` [Compound 7, 1-undecylpiperidine, reference compound], the zone of inhibition at 50 µg/disc in series [3] was 8 mm; in series [4], 13 mm; in series [5] it was 7 mm; in series [6], 8 mm; in series [7], 0 mm; in [8], 17 mm. Further, the zone of inhibition at 50 µg/disc was 22 mm in series [9] and 12 mm in series [10]. In addition, the “change in sterol pattern / target enzyme in ergosterol biosynthesis” value at Δ8,7-isomerase [2] is given as “accumulation of lichesterol”. Besides, the results for the MIC in the series with Saccharomyces cerevisiae, in the series on Yarrowia lipolytica and with Candida glabrata were 1.75 µg/mL (≈ 7.31 µM), 7.5 µg/mL (≈ 31.3 µM) and 12.5 µg/mL (≈ 52.2 µM), respectively.

Broadly, the melting point is the temperature, or range, at which the solid turns liquid. On to `CCCCCCCCCN1CCCc2ccccc21.Cl` [Compound 3a, 1-Nonyl-1,2,3,4-tetrahydroquinoline hydrochloride], for which the melting point turned out to be 65 °C. This compound also had an IC50 in series [1] of 19 µM.

Source of the values: publication PMC4727778, “Synthesis and Antifungal Evaluation of Novel N-Alkyl Tetra- and Perhydroquinoline Derivatives” (Scientia Pharmaceutica, 2014).
